According to PubChem BioAssay (NCI):
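Each compound was tested at five concentrations against cells in 96-well plates for 48 hours. TGI is the concentration that stops growth completely.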

What was measured:
Experiment in all cases: NCI-60 cell line screen, 48 h
786-0 renal = tested on: 786-0 renal
COLO 205 colon = tested on: COLO 205 colon
SW-620 colon = tested on: SW-620 colon
OVCAR-3 ovarian = tested on: OVCAR-3 ovarian
HCT-15 colon = tested on: HCT-15 colon
HT29 colon = tested on: HT29 colon
NCI-H226 lung = tested on: NCI-H226 lung
NCI-H460 lung = tested on: NCI-H460 lung
SK-OV-3 ovarian = tested on: SK-OV-3 ovarian
SNB-75 CNS = tested on: SNB-75 CNS
RPMI-8226 leukemia = tested on: RPMI-8226 leukemia
ACHN renal = tested on: ACHN renal
HOP-62 NSCLC = tested on: HOP-62 NSCLC
CCRF-CEM leukemia = tested on: CCRF-CEM leukemia
DU-145 prostate = tested on: DU-145 prostate
HL-60(TB) leukemia = tested on: HL-60(TB) leukemia
HS 578T breast = tested on: HS 578T breast
SNB-19 CNS = tested on: SNB-19 CNS
SK-MEL-2 melanoma = tested on: SK-MEL-2 melanoma
MDA-N = tested on: MDA-N
SF-295 CNS = tested on: SF-295 CNS
OVCAR-8 ovarian = tested on: OVCAR-8 ovarian
M14 melanoma = tested on: M14 melanoma
NCI-H23 lung = tested on: NCI-H23 lung
MDA-MB-231 breast = tested on: MDA-MB-231 breast
PC-3 prostate = tested on: PC-3 prostate
TK-10 renal = tested on: TK-10 renal
OVCAR-5 ovarian = tested on: OVCAR-5 ovarian
IGROV1 ovarian = tested on: IGROV1 ovarian
MOLT-4 leukemia = tested on: MOLT-4 leukemia
HOP-92 NSCLC = tested on: HOP-92 NSCLC
SN12C renal = tested on: SN12C renal
SF-268 CNS = tested on: SF-268 CNS
MDA-MB-435 = tested on: MDA-MB-435
MCF7 breast = tested on: MCF7 breast
U251 CNS = tested on: U251 CNS
RXF 393 renal = tested on: RXF 393 renal
K-562 leukemia = tested on: K-562 leukemia
SK-MEL-28 melanoma = tested on: SK-MEL-28 melanoma
UO-31 renal = tested on: UO-31 renal
LOX IMVI melanoma = tested on: LOX IMVI melanoma
SR leukemia = tested on: SR leukemia
SK-MEL-5 melanoma = tested on: SK-MEL-5 melanoma
KM12 colon = tested on: KM12 colon
SF-539 CNS = tested on: SF-539 CNS
MALME-3M melanoma = tested on: MALME-3M melanoma
HCT-116 colon = tested on: HCT-116 colon
A498 renal = tested on: A498 renal
A549 NSCLC = tested on: A549 NSCLC
EKVX NSCLC = tested on: EKVX NSCLC
HCC-2998 colon = tested on: HCC-2998 colon
BT-549 breast = tested on: BT-549 breast
UACC-257 melanoma = tested on: UACC-257 melanoma
T-47D breast = tested on: T-47D breast
NCI-H522 lung = tested on: NCI-H522 lung
UACC-62 melanoma = tested on: UACC-62 melanoma
NCI/ADR-RES ovarian = tested on: NCI/ADR-RES ovarian
CAKI-1 renal = tested on: CAKI-1 renal
OVCAR-4 ovarian = tested on: OVCAR-4 ovarian
DMS 273 small cell lung = tested on: DMS 273 small cell lung
DLD-1 colon = tested on: DLD-1 colon
DMS 114 small cell lung = tested on: DMS 114 small cell lung
LXFL 529 NSCLC = tested on: LXFL 529 NSCLC
M19-MEL melanoma = tested on: M19-MEL melanoma

## COc1ccc(C2C(=O)c3ccc(OC)cc3OC2c2cccnc2)cc1 (stereo unspecified)
786-0 renal
  TGI: > 100 µM
COLO 205 colon
  TGI: > 100 µM
SW-620 colon
  TGI: > 100 µM
OVCAR-3 ovarian
  TGI: > 100 µM
HCT-15 colon
  TGI: > 100 µM
HT29 colon
  TGI: > 100 µM
NCI-H226 lung
  TGI: > 100 µM
NCI-H460 lung
  TGI: > 100 µM
SK-OV-3 ovarian
  TGI: > 100 µM
SNB-75 CNS
  TGI: > 100 µM
RPMI-8226 leukemia
  TGI: > 100 µM
ACHN renal
  TGI: > 100 µM
HOP-62 NSCLC
  TGI: > 100 µM
CCRF-CEM leukemia
  TGI: > 100 µM
DU-145 prostate
  TGI: > 100 µM
HL-60(TB) leukemia
  TGI: > 100 µM
HS 578T breast
  TGI: > 100 µM
SNB-19 CNS
  TGI: > 100 µM
SK-MEL-2 melanoma
  TGI: > 100 µM
MDA-N
  TGI: > 100 µM
SF-295 CNS
  TGI: > 100 µM
OVCAR-8 ovarian
  TGI: > 100 µM
M14 melanoma
  TGI: > 100 µM
NCI-H23 lung
  TGI: > 100 µM
MDA-MB-231 breast
  TGI: > 100 µM
PC-3 prostate
  TGI: > 100 µM
TK-10 renal
  TGI: > 100 µM
OVCAR-5 ovarian
  TGI: > 100 µM
IGROV1 ovarian
  TGI: > 100 µM
MOLT-4 leukemia
  TGI: > 100 µM
HOP-92 NSCLC
  TGI: 97.1 µM
SN12C renal
  TGI: > 100 µM
SF-268 CNS
  TGI: > 100 µM
MDA-MB-435
  TGI: > 100 µM
MCF7 breast
  TGI: > 100 µM
U251 CNS
  TGI: > 100 µM
RXF 393 renal
  TGI: > 100 µM
K-562 leukemia
  TGI: > 100 µM
SK-MEL-28 melanoma
  TGI: > 100 µM
UO-31 renal
  TGI: > 100 µM
LOX IMVI melanoma
  TGI: > 100 µM
SR leukemia
  TGI: > 100 µM
SK-MEL-5 melanoma
  TGI: > 100 µM
KM12 colon
  TGI: > 100 µM
SF-539 CNS
  TGI: > 100 µM
MALME-3M melanoma
  TGI: > 100 µM
HCT-116 colon
  TGI: > 100 µM
A498 renal
  TGI: > 100 µM
A549 NSCLC
  TGI: > 100 µM
EKVX NSCLC
  TGI: > 100 µM
HCC-2998 colon
  TGI: > 100 µM
BT-549 breast
  TGI: > 100 µM
UACC-257 melanoma
  TGI: > 100 µM
T-47D breast
  TGI: > 100 µM
NCI-H522 lung
  TGI: > 100 µM
UACC-62 melanoma
  TGI: > 100 µM
NCI/ADR-RES ovarian
  TGI: > 100 µM
CAKI-1 renal
  TGI: > 100 µM
OVCAR-4 ovarian
  TGI: > 100 µM

## CCOC(=O)CNC(=O)c1[nH]cnc1/N=N/N(C)C
786-0 renal
  TGI: > 100 µM
COLO 205 colon
  TGI: > 100 µM
DMS 273 small cell lung
  TGI: > 100 µM
DLD-1 colon
  TGI: > 100 µM
SW-620 colon
  TGI: > 100 µM
OVCAR-3 ovarian
  TGI: > 100 µM
HCT-15 colon
  TGI: > 100 µM
HT29 colon
  TGI: > 100 µM
NCI-H226 lung
  TGI: > 100 µM
NCI-H460 lung
  TGI: > 100 µM
SK-OV-3 ovarian
  TGI: > 100 µM
SNB-75 CNS
  TGI: > 100 µM
RPMI-8226 leukemia
  TGI: > 100 µM
ACHN renal
  TGI: > 100 µM
HOP-62 NSCLC
  TGI: > 100 µM
CCRF-CEM leukemia
  TGI: > 100 µM
HL-60(TB) leukemia
  TGI: > 100 µM
SNB-19 CNS
  TGI: > 100 µM
SK-MEL-2 melanoma
  TGI: > 100 µM
DMS 114 small cell lung
  TGI: > 100 µM
LXFL 529 NSCLC
  TGI: > 100 µM
SF-295 CNS
  TGI: > 100 µM
M19-MEL melanoma
  TGI: > 100 µM
OVCAR-8 ovarian
  TGI: > 100 µM
M14 melanoma
  TGI: > 100 µM
NCI-H23 lung
  TGI: > 100 µM
TK-10 renal
  TGI: > 100 µM
OVCAR-5 ovarian
  TGI: > 100 µM
IGROV1 ovarian
  TGI: > 100 µM
MOLT-4 leukemia
  TGI: > 100 µM
SN12C renal
  TGI: > 100 µM
SF-268 CNS
  TGI: > 100 µM
U251 CNS
  TGI: > 100 µM
K-562 leukemia
  TGI: > 100 µM
SK-MEL-28 melanoma
  TGI: > 100 µM
UO-31 renal
  TGI: > 100 µM
LOX IMVI melanoma
  TGI: > 100 µM
SR leukemia
  TGI: > 100 µM
SK-MEL-5 melanoma
  TGI: > 100 µM
KM12 colon
  TGI: > 100 µM
SF-539 CNS
  TGI: > 100 µM
MALME-3M melanoma
  TGI: > 100 µM
HCT-116 colon
  TGI: > 100 µM
A498 renal
  TGI: > 100 µM
A549 NSCLC
  TGI: > 100 µM
EKVX NSCLC
  TGI: > 100 µM
HCC-2998 colon
  TGI: > 100 µM
UACC-257 melanoma
  TGI: > 100 µM
NCI-H522 lung
  TGI: > 100 µM
UACC-62 melanoma
  TGI: > 100 µM
CAKI-1 renal
  TGI: > 100 µM
OVCAR-4 ovarian
  TGI: > 100 µM
